Data as given in article PMC9578392, “Safety, Tolerability, and Pharmacokinetics of the Novel Antiviral Agent Ensitrelvir Fumaric Acid, a SARS-CoV-2 3CL Protease Inhibitor, in Healthy Adults” (Antimicrobial Agents and Chemotherapy, 2022).
Entries after “also recorded” stand apart in the source; their conditions may differ. Like-named read-outs stand apart in the source and are kept apart here.

Assay: Effect of food on pharmacokinetics (cohort C, 250 mg crossover)
Format: in vivo, human
Settings: for Tmax / AUC(0-inf) / AUC(0-t) / Cmax / half-life: human, plasma, oral, 250 mg; for AUC(0-inf): read-out: AUC0-inf, GLS mean; for AUC(0-t): read-out: AUC0-last, GLS mean; for Cmax: read-out: Cmax, GLS mean; for half-life: read-out: t1/2,z, GLS mean (converted)
Method: In part 1, Japanese participants were randomized to receive placebo or single dose of ensitrelvir (20, 70, 250, 500, 1,000, and 2,000 mg given to cohorts A, B, C, D, E, and J, respectively), suspended in 0.5% methylcellulose, in the fasted state. Additionally, in cohort C, the effect of food on the pharmacokinetics of ensitrelvir was investigated in a 2-group, 2-period crossover design by administering placebo or ensitrelvir (250 mg) in the fasted or fed (high-fat/high-calorie) state. In part 2, Japanese participants were randomized to receive placebo or multiple doses of ensitrelvir, suspended in 0.5% methylcellulose. The multiple-dose regimens were as follows: once-daily doses of ensitrelvir 375 mg on day 1 and 125 mg on days 2 to 5 (cohort F), or 750 mg on day 1 and 250 mg on days 2 to 6 (cohort G) in the fasted state. White participants were randomized to receive placebo or multiple doses of ensitrelvir. The multiple-dose regimens were as follows: once-daily doses of ensitrelvir 375 mg on day 1 and 125 mg on days 2 to 5 (cohort H). Each cohort included 11 participants. In cohort G, the effect of ensitrelvir on the pharmacokinetics of midazolam (syrup) was evaluated in an open label self-controlled crossover design. Midazolam 2 mg alone was administered 2 days prior to initiating ensitrelvir administration (on day −2) and midazolam was coadministered on day 6 with placebo or ensitrelvir in the fasted state to participants following once-daily doses for 5 days of placebo (days 1 to 5) or ensitrelvir (750 mg on day 1 and 250 mg on days 2–5).
Blood and urine samples were collected and analyzed at several time points to determine the concentration of ensitrelvir and midazolam. For single-dose administration, blood samples were collected predose (0 h) and 0.5, 1, 1.5, 2, 2.5, 3, 4, 6, 8, 12, 24, 36, 48, 60, 72, 96, 120, and 144 h postdose on day 1 at 20 mg (cohort A); predose (0 h) and 0.5, 1, 1.5, 2, 2.5, 3, 4, 6, 8, 12, 24, 36, 48, 60, 72, 96, 120, 144, 192, and 336 h postdose on day 1 at 70, 500, 1,000, and 2,000 mg (cohorts B, D, E, and J); and predose (0 h) and 0.5, 1, 1.5, 2, 2.5, 3, 4, 6, 8, 12, 24, 36, 48, 60, 72, 96, 120, and 144, 192, and 336 h postdose on days 1 and 15 at 250 mg (cohort C). Urine samples were collected at 0 to 24, 24 to 48, 48 to 72, 72 to 96, 96 to 120, and 120 to 144 h postdose on day 1 at 20, 70, 500, and 1,000 mg (cohorts A, B, D, and E); and 0 to 24, 24 to 48, 48 to 72, 72 to 96, 96 to 120, and 120 to 144 h postdose on days 1 and 15 at 250 mg (cohort C). For multiple-dose administration, blood samples were collected predose (0 h) and 0.5, 1, 1.5, 2, 2.5, 3, 4, 6, 8, and 12 h postdose on day 1; predose (0 h) on days 2 to 4; and predose (0 h) and 0.5, 1, 1.5, 2, 2.5, 3, 4, 6, 8, 12, and 24 h postdose on day 5 to evaluate the pharmacokinetics of ensitrelvir. Blood samples were also collected predose (0 h) and 0.5, 1, 2, 3, 4, 5, 6, 8, 12, and 24 h postdose on […] to evaluate the pharmacokinetics of midazolam.
Pharmacokinetic parameters were estimated based on the plasma concentration time data for ensitrelvir and midazolam by noncompartmental analysis (Phoenix WinNonlin version 6.2.1, Certara USA Inc., Princeton, NJ, USA). Dose proportionality assessments included the Cmax, area under the plasma concentration-time curve (AUC0-last, AUC0-inf, and AUC0-τ), and dose independency included t1/2,z, terminal elimination rate constant (λz), MRT, CL/F, and Vz/F. Urine pharmacokinetic parameters for ensitrelvir were calculated based on the urine concentrations of ensitrelvir and urine volume with noncompartmental analysis. Feu0-144 was calculated after single-dose administration. Additionally, renal clearance (CLR) was calculated using the cumulative amount of the drug excreted in urine and AUC in plasma for ensitrelvir. […]

[1] = Cohort C/250 mg single dose, Fasted
[2] = Cohort C/250 mg single dose, Fed

For Cn1cnc(Cn2c(=O)[nH]/c(=N\c3cc4cn(C)nc4cc3Cl)n(Cc3cc(F)c(F)cc3F)c2=O)n1 [Ensitrelvir, ensitrelvir fumaric acid], which “reduction of Cmax by food intake” value (250 mg single dose, fed vs fasted) is on record?
The value was 15%.

What about the “effect of food intake on AUC” value (250 mg single dose, high-fat/high-calorie meal) of the same molecule?
Its value is “did not impact; also recorded: did not affect”.

And the “AUC0-inf, GLS mean (90% CI) ratio (fed/fasted)” value (Cohort C/250 mg single dose)?
Its value is 1.0460 (1.0047/1.0891).

What about the “AUC0-last, GLS mean (90% CI) ratio (fed/fasted)” value (Cohort C/250 mg single dose) of the same molecule?
The value was 1.0470 (1.0061/1.0895).

What about the “Cmax, GLS mean (90% CI) ratio (fed/fasted)” value (Cohort C/250 mg single dose) of the same molecule?
The value was 0.8508 (0.7507/0.9644).

What about the “t1/2,z, GLS mean (90% CI) ratio (fed/fasted)” value (Cohort C/250 mg single dose) of the same molecule?
The value was 0.9385 (0.8893/0.9905).

What about the Tmax (250 mg single dose, fasted state) of the same molecule?
Its Tmax is 2.5 h.

What about the Tmax (250 mg single dose, fed state) of the same molecule?
The Tmax was 8 h.

What about the AUC(0-inf) [1] of the same molecule?
The AUC(0-inf) was 914 µg·h/mL.

What about the AUC(0-t) [1] of the same molecule?
Its AUC(0-t) is 907 µg·h/mL.

And the Cmax [1]?
Its Cmax is 15200 ng/mL.

And the half-life [1]?
The half-life was 43.1 h.

What about the AUC(0-inf) [2] of the same molecule?
Its AUC(0-inf) is 956 µg·h/mL.

And the AUC(0-t) [2]?
Its AUC(0-t) is 949 µg·h/mL.

What about the Cmax [2] of the same molecule?
The Cmax was 13000 ng/mL.

What about the half-life [2] of the same molecule?
Its half-life is 40.5 h.
